Data taken from ChEMBL document CHEMBL1201862, “PubChem BioAssay data set” (2004).
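96-well plates; 48 h exposure; 5 concentrations. Endpoints by linear interpolation between flanking doses. Not reached: highest tested concentration assigned. Abbreviation: GI50, concentration required for 50% inhibition of growth.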 Calls of active or inactive are those of the source. Cut-off read from the data, not from the text of the source: active = GI50 up to about 1.1 µM and inactive = higher.

What was measured:
Assay in all cases: NCI tumour cell line growth inhibition, 48 h
MDA-MB-231 = test system: MDA-MB-231
KM12 = test system: KM12
OVCAR-5 = test system: OVCAR-5
U-251 = test system: U-251
DU-145 = test system: DU-145
SK-MEL-2 = test system: SK-MEL-2
OVCAR-3 = test system: OVCAR-3
SR = test system: SR
SNB-19 = test system: SNB-19
BT-549 = test system: BT-549
SF-268 = test system: SF-268
HCC 2998 = test system: HCC 2998
SK-MEL-28 = test system: SK-MEL-28
COLO 205 = test system: COLO 205
HOP-62 = test system: HOP-62
UACC-257 = test system: UACC-257
RXF 393 = test system: RXF 393
CCRF-CEM = test system: CCRF-CEM
SK-MEL-5 = test system: SK-MEL-5
PC-3 = test system: PC-3
K562 = test system: K562
786-0 = test system: 786-0
HL-60 = test system: HL-60
A498 = test system: A498
Malme-3M = test system: Malme-3M
UO-31 = test system: UO-31
NCI-H23 = test system: NCI-H23
HT-29 = test system: HT-29
NCI-H226 = test system: NCI-H226
ACHN = test system: ACHN
HCT-15 = test system: HCT-15
HCT-116 = test system: HCT-116
IGROV-1 = test system: IGROV-1
MOLT-4 = test system: MOLT-4
CAKI-1 = test system: CAKI-1
MDA-N = test system: MDA-N
SF-295 = test system: SF-295
SW-620 = test system: SW-620
NCI-H522 = test system: NCI-H522
UACC-62 = test system: UACC-62
NCI-H460 = test system: NCI-H460
Hs-578T = test system: Hs-578T
OVCAR-4 = test system: OVCAR-4
SN12C = test system: SN12C
SK-OV-3 = test system: SK-OV-3
HOP-92 = test system: HOP-92
LOX IMVI = test system: LOX IMVI
MDA-MB-435 = test system: MDA-MB-435
RPMI-8226 = test system: RPMI-8226
EKVX = test system: EKVX
MCF7 = test system: MCF7
TK-10 = test system: TK-10
M14 = test system: M14
SF-539 = test system: SF-539
NCI/ADR-RES = test system: NCI/ADR-RES
A549 = test system: A549
OVCAR-8 = test system: OVCAR-8
SNB-75 = test system: SNB-75

Question: CCOC(=O)c1nc2cc(C(F)(F)F)ccc2nc1Nc1ccc(C(=O)NC(C(=O)OCC)C(=O)OCC)cc1 was tested. Which GI50 (MDA-MB-231) did it give?
Answer: 17.4 µM (inactive)

Question: What about the GI50 (KM12) of the same compound?
Answer: 27.5 µM (inactive)

Question: What about the GI50 (OVCAR-5) of the same compound?
Answer: 45.1 µM (inactive)

Question: And the GI50 (U-251)?
Answer: 14 µM (inactive)

Question: What about the GI50 (DU-145) of the same compound?
Answer: 51.6 µM (inactive)

Question: And the GI50 (SK-MEL-2)?
Answer: 52.5 µM (inactive)

Question: And the GI50 (OVCAR-3)?
Answer: 45.4 µM (inactive)

Question: And the GI50 (SR)?
Answer: 46.9 µM (inactive)

Question: What about the GI50 (SNB-19) of the same compound?
Answer: 18.2 µM (inactive)

Question: And the GI50 (BT-549)?
Answer: 23.6 µM (inactive)

Question: And the GI50 (SF-268)?
Answer: 19.5 µM (inactive)

Question: What about the GI50 (HCC 2998) of the same compound?
Answer: 49.4 µM (inactive)

Question: What about the GI50 (SK-MEL-28) of the same compound?
Answer: 14.1 µM (inactive)

Question: And the GI50 (COLO 205)?
Answer: 44.4 µM (inactive)

Question: What about the GI50 (HOP-62) of the same compound?
Answer: 13.8 µM (inactive)

Question: What about the GI50 (UACC-257) of the same compound?
Answer: 18.7 µM (inactive)

Question: And the GI50 (RXF 393)?
Answer: 13.6 µM (inactive)

Question: And the GI50 (CCRF-CEM)?
Answer: 75 µM (inactive)

Question: And the GI50 (SK-MEL-5)?
Answer: 20.5 µM (inactive)

Question: What about the GI50 (PC-3) of the same compound?
Answer: 22.9 µM (inactive)

Question: What about the GI50 (K562) of the same compound?
Answer: 43.2 µM (inactive)

Question: And the GI50 (786-0)?
Answer: 14.3 µM (inactive)

Question: What about the GI50 (HL-60) of the same compound?
Answer: 73.6 µM (inactive)

Question: And the GI50 (A498)?
Answer: 25.5 µM (inactive)

Question: And the GI50 (Malme-3M)?
Answer: 20 µM (inactive)

Question: What about the GI50 (UO-31) of the same compound?
Answer: 30.6 µM (inactive)

Question: What about the GI50 (NCI-H23) of the same compound?
Answer: 35.5 µM (inactive)

Question: And the GI50 (HT-29)?
Answer: 25.1 µM (inactive)

Question: And the GI50 (NCI-H226)?
Answer: 13.7 µM (inactive)

Question: And the GI50 (ACHN)?
Answer: 23.3 µM (inactive)

Question: What about the GI50 (HCT-15) of the same compound?
Answer: 26.5 µM

Question: And the GI50 (HCT-116)?
Answer: 19 µM (inactive)

Question: And the GI50 (IGROV-1)?
Answer: 20.1 µM (inactive)

Question: And the GI50 (MOLT-4)?
Answer: > 100 µM (inactive)

Question: What about the GI50 (CAKI-1) of the same compound?
Answer: 19 µM (inactive)

Question: And the GI50 (MDA-N)?
Answer: > 10 µM (inactive)

Question: And the GI50 (SF-295)?
Answer: 15.5 µM (inactive)

Question: What about the GI50 (SW-620) of the same compound?
Answer: 40.8 µM (inactive)

Question: And the GI50 (NCI-H522)?
Answer: 18.7 µM (inactive)

Question: What about the GI50 (UACC-62) of the same compound?
Answer: 11.5 µM (inactive)

Question: What about the GI50 (NCI-H460) of the same compound?
Answer: 73.6 µM (inactive)

Question: What about the GI50 (Hs-578T) of the same compound?
Answer: 12.4 µM (inactive)

Question: And the GI50 (OVCAR-4)?
Answer: 10.6 µM (inactive)

Question: What about the GI50 (SN12C) of the same compound?
Answer: 18.9 µM (inactive)

Question: What about the GI50 (SK-OV-3) of the same compound?
Answer: 22.2 µM (inactive)

Question: And the GI50 (HOP-92)?
Answer: 27.4 µM (inactive)

Question: And the GI50 (LOX IMVI)?
Answer: 54.2 µM (inactive)

Question: And the GI50 (MDA-MB-435)?
Answer: 33.6 µM (inactive)

Question: And the GI50 (RPMI-8226)?
Answer: 11.5 µM (inactive)

Question: What about the GI50 (EKVX) of the same compound?
Answer: 26.2 µM (inactive)

Question: What about the GI50 (MCF7) of the same compound?
Answer: 19.5 µM (inactive)

Question: And the GI50 (TK-10)?
Answer: 24.7 µM (inactive)

Question: What does the source list for NC(=S)Nc1c(S(N)(=O)=O)cc(S(N)(=O)=O)c(Cl)c1Cl?
Answer: GI50 (MDA-MB-231): > 100 µM (inactive); GI50 (KM12): > 100 µM (inactive); GI50 (OVCAR-5): > 100 µM (inactive); GI50 (U-251): > 100 µM (inactive); GI50 (DU-145): > 100 µM (inactive); GI50 (SK-MEL-2): > 100 µM (inactive); GI50 (OVCAR-3): > 100 µM (inactive); GI50 (SNB-19): > 100 µM (inactive); GI50 (BT-549): > 100 µM (inactive); GI50 (SF-268): > 100 µM (inactive); GI50 (M14): > 100 µM (inactive); GI50 (SK-MEL-28): > 100 µM (inactive); GI50 (COLO 205): > 100 µM (inactive); GI50 (HOP-62): > 100 µM (inactive); GI50 (UACC-257): > 100 µM (inactive); GI50 (RXF 393): > 100 µM (inactive); GI50 (CCRF-CEM): > 100 µM (inactive); GI50 (SK-MEL-5): > 100 µM (inactive); GI50 (PC-3): > 100 µM (inactive); GI50 (K562): > 100 µM (inactive); GI50 (786-0): > 100 µM (inactive); GI50 (HL-60): > 100 µM (inactive); GI50 (Malme-3M): > 100 µM (inactive); GI50 (UO-31): > 100 µM (inactive); GI50 (NCI-H23): > 100 µM (inactive); GI50 (HT-29): > 100 µM (inactive); GI50 (NCI-H226): > 100 µM (inactive); GI50 (HCT-15): > 100 µM; GI50 (HCT-116): > 100 µM (inactive); GI50 (SF-539): 0.443 µM (active); GI50 (IGROV-1): > 100 µM (inactive); GI50 (MOLT-4): > 100 µM (inactive); GI50 (NCI/ADR-RES): > 100 µM (inactive); GI50 (CAKI-1): > 100 µM (inactive); GI50 (MDA-N): > 100 µM (inactive); GI50 (SF-295): > 100 µM (inactive); GI50 (SW-620): > 100 µM (inactive); GI50 (NCI-H522): > 100 µM (inactive); GI50 (UACC-62): > 100 µM (inactive); GI50 (Hs-578T): > 100 µM (inactive); GI50 (OVCAR-4): > 100 µM (inactive); GI50 (SN12C): > 100 µM (inactive); GI50 (SK-OV-3): > 100 µM (inactive); GI50 (A549): > 100 µM (inactive); GI50 (OVCAR-8): > 100 µM (inactive); GI50 (HOP-92): > 100 µM (inactive); GI50 (LOX IMVI): > 100 µM (inactive); GI50 (SNB-75): > 100 µM (inactive); GI50 (MDA-MB-435): > 100 µM (inactive); GI50 (RPMI-8226): > 100 µM (inactive); GI50 (EKVX): > 100 µM (inactive); GI50 (MCF7): > 100 µM (inactive); GI50 (TK-10): > 100 µM (inactive)

Question: What does the source list for CCOc1cc2c(cc1O)/C(=N\O)C[C@@H]1[C@@H]2CC[C@]2(C)[C@@H](O)CC[C@@H]12?
Answer: GI50 (KM12): 0.168 µM (active); GI50 (OVCAR-5): 5.85 µM (inactive); GI50 (U-251): 0.018 µM (active); GI50 (DU-145): < 0.0197 µM (active); GI50 (SNB-19): < 0.01 µM (active); GI50 (BT-549): 0.0371 µM (active); GI50 (SF-268): < 0.031 µM (active); GI50 (HCC 2998): 2.72 µM (inactive); GI50 (M14): 0.0144 µM (active); GI50 (SK-MEL-28): < 0.0276 µM (active); GI50 (COLO 205): 8.79 µM (inactive); GI50 (HOP-62): < 0.0201 µM (active); GI50 (UACC-257): 33.3 µM (inactive); GI50 (SK-MEL-5): 0.01 µM (active); GI50 (K562): < 0.0173 µM (active); GI50 (786-0): < 0.0208 µM (active); GI50 (HL-60): < 0.0155 µM (active); GI50 (A498): < 0.0272 µM (active); GI50 (UO-31): 0.147 µM (active); GI50 (NCI-H23): 0.0455 µM (active); GI50 (HT-29): 6.71 µM (inactive); GI50 (NCI-H226): 0.0817 µM (active); GI50 (ACHN): 0.126 µM (active); GI50 (HCT-15): < 0.0199 µM; GI50 (HCT-116): < 0.0211 µM (active); GI50 (SF-539): 0.00256 µM (active); GI50 (IGROV-1): 0.628 µM (active); GI50 (MOLT-4): < 0.023 µM (active); GI50 (NCI/ADR-RES): < 0.0276 µM (active); GI50 (CAKI-1): < 0.0235 µM (active); GI50 (MDA-N): 0.0123 µM (active); GI50 (NCI-H522): < 0.0182 µM (active); GI50 (UACC-62): < 0.0191 µM (active); GI50 (NCI-H460): < 0.0198 µM (active); GI50 (Hs-578T): < 0.0221 µM (active); GI50 (OVCAR-4): 6.34 µM (inactive); GI50 (SN12C): < 0.0216 µM (active); GI50 (SK-OV-3): 0.0374 µM (active); GI50 (A549): 0.0521 µM (active); GI50 (OVCAR-8): < 0.028 µM (active); GI50 (HOP-92): 0.00782 µM (active); GI50 (LOX IMVI): < 0.0363 µM (active); GI50 (SNB-75): < 0.01 µM (active); GI50 (MDA-MB-435): 0.011 µM (active); GI50 (RPMI-8226): 0.0238 µM (active); GI50 (EKVX): 55.2 µM (inactive); GI50 (MCF7): < 0.0195 µM (active); GI50 (TK-10): 29.6 µM (inactive)
